The text below walks through data of patent US20090018166A1, “New Pyridine Analogues X 161” (ASTRAZENECA AB, priority 2007, published 2009).

SMILES strings stand for the structures.

In the assay the target is T1, P2Y12 receptor (Homo sapiens, UniProt Q9H244).
T1 construct: expressed in transfected cells; host or cells: CHO cells (membranes)
Nature of the assay: Functional inhibition of 2-Me-S-ADP induced P2Y12 signalling (35S-GTPγS binding, membranes from P2Y12 transfected CHO-cells). It counts as biochemical. The conditions noted are these: 35S-GTPγS, EC80 of 2-methyl-thio-adenosine diphosphate, P2Y12 CHO membranes; value given in each example; read-out: GTPγS(IC50 μM). In outline: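 Membranes (5 μg) from P2Y12-transfected CHO cells in pH 7.4 HEPES buffer with 10 μM GDP and saponin were stimulated with an EC80 of 2-methyl-thio-ADP plus compound and ^35S-GTPγS for 45 min at 30° C. Filter-retained ^35S-GTPγS was counted, normalised between agonist and no-agonist activity, and IC50 taken from a four-parameter fit.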
For orientation: Binding of GTPγS marks nucleotide exchange on a G protein.

T1 sequence (Q9H244 whole entry): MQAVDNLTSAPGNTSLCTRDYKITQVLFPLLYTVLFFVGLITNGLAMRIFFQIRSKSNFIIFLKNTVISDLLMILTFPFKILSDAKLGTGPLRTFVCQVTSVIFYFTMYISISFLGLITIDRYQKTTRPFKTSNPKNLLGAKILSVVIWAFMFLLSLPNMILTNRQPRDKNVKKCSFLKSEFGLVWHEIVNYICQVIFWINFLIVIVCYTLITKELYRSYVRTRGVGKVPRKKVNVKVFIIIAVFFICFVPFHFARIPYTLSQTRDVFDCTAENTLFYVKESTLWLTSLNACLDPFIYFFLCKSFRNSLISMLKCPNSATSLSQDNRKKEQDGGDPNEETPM

The term IC50 denotes the point on the concentration scale where inhibition reaches its midpoint. Take `CCc1cnc(-c2cc(C#N)c(N3CCC(C(=O)NS(=O)(=O)N(C)c4ccc(F)cc4)CC3)nc2CN2CCCC2=O)o1` [Example 62, 1-{3-cyano-5-(5-ethyl-1,3-oxazol-2-yl)-6-[(2-oxopyrrolidin-1-yl)methyl]pyridin-2-yl}-N-{[(4-fluorophenyl)(methyl)amino]sulfonyl}piperidine-4-carboxamide]: the IC50 stood at 0.03 µM.

With `CCc1cnc(-c2cc(C#N)c(N3CCC(C(=O)NS(=O)(=O)Cc4ccccc4)CC3)nc2CN2CCCC2=O)o1` [Example 63, N-(benzylsulfonyl)-1-{3-cyano-5-(5-ethyl-1,3-oxazol-2-yl)-6-[(2-oxopyrrolidin-1-yl)methyl]pyridin-2-yl}piperidine-4-carboxamide], the IC50 amounted to 0.021 µM.

On to `CCc1cnc(-c2cc(Cl)c(N3CCC(C(=O)NS(=O)(=O)N(C)c4ccc(F)cc4)CC3)nc2CN2CCCC2=O)o1` [Example 64, 1-{3-chloro-5-(5-ethyl-1,3-oxazol-2-yl)-6-[(2-oxopyrrolidin-1-yl)methyl]pyridin-2-yl}-N-{[(4-fluorophenyl)(methyl)amino]sulfonyl}piperidine-4-carboxamide], for which the IC50 was determined as 0.45 µM.

In the case of `CCc1cnc(-c2cc(Cl)c(N3CCC(C(=O)NS(=O)(=O)Cc4ccccc4)CC3)nc2CN2CCCC2=O)o1` [Example 65, N-(benzylsulfonyl)-1-{3-chloro-5-(5-ethyl-1,3-oxazol-2-yl)-6-[(2-oxopyrrolidin-1-yl)methyl]pyridin-2-yl}piperidine-4-carboxamide], the IC50 came to 0.17 µM.

Take `CCCC(=O)c1cc(Cl)c(N2CCC(C(=O)NS(=O)(=O)Cc3ccccc3)CC2)nc1CN1CCCCC1=O` [Example 66, N-(benzylsulfonyl)-1-{5-butyryl-3-chloro-6-[(2-oxopiperidin-1-yl)methyl]pyridin-2-yl}piperidine-4-carboxamide]: the half-maximal inhibitory concentration (IC50) was 0.252 µM.

Consider `CCCC(=O)c1cc(Cl)c(N2CCC(C(=O)NS(=O)(=O)N(C)c3ccc(F)cc3)CC2)nc1CN1CCCCC1=O` [Example 67, 1-{5-Butyryl-3-chloro-6-[(2-oxopiperidin-1-yl)methyl]pyridin-2-yl}-N-{[(4-fluorophenyl)(methyl)amino]sulfonyl}piperidine-4-carboxamide], for which the IC50 turned out to be 0.445 µM.

Regarding `CCCC(=O)c1cc(Cl)c(N2CCC(C(=O)N(C)S(=O)(=O)N(C)c3ccc(F)cc3)CC2)nc1CN1CCCC1=O` [Example 69, 1-{5-Butyryl-3-chloro-6-[(2-oxopyrrolidin-1-yl)methyl]pyridin-2-yl}-N-{[(4-fluorophenyl)(methyl)amino]sulfonyl}-N-methylpiperidine-4-carboxamide], the IC50 was found to be 3.67 µM.

Turning to `CCCC(=O)c1cc(C#N)c(N2CCC(C(=O)N(C)S(=O)(=O)CC3CCCC3)CC2)nc1CN1CCCC1=O` [Example 70, 1-{5-Butyryl-3-cyano-6-[(2-oxopyrrolidin-1-yl)methyl]pyridin-2-yl}-N-[(cyclopentylmethyl)sulfonyl]-N-methylpiperidine-4-carboxamide], the IC50 is 0.903 µM.
